Data as given in paper PMC10220285, “Development of an assay pipeline for the discovery of novel small molecule inhibitors of human glutathione peroxidases GPX1 and GPX4” (Redox Biology, 2023).

Legend:
[1] = molecular target: T1, GPX4 (Homo sapiens, UniProt P36969); assay: GR-coupled GPX4 activity assay (NADPH fluorescence, CHP substrate); assay type: biochemical; settings: Fig. 9 pan-selenoprotein inhibitors
T1 construct: made in house; host or cells: E. coli
T1 sequence (P36969 1-170 isoform P36969-2): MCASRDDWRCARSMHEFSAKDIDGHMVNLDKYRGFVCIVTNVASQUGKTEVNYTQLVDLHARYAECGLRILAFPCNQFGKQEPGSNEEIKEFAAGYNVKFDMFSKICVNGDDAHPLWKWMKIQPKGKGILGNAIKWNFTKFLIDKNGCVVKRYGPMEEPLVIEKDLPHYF
Description: (§1) The compound plates were prepared as described previously. Purified recombinant human GPX1, GPX2, GPX4, GR, and TXNRD1 were produced and purified as previously reported [[48], [49], [50]]. As production of GPX2 was not optimized at the onset of screening, only GPX1 and GPX4 underwent library screening, and GPX2 was used as a follow-up.
(§2) Follow-up and orthogonal assays were run in quadruplicate unless otherwise stated. Assay schemes are illustrated in Fig. 1.
To measure GPX activity, assays were performed in 1536-well format in black medium-binding solid-bottom plates (Greiner). These assay conditions were optimized for high-throughput screening from an assay first described by Paglia and Valentine. GPX activity is measured indirectly by coupling the reaction with GR whereby GPX reduces hydroperoxide by oxidizing two GSH to GSSG and the oxidized glutathione is recycled to its reduced state by GR and NADPH (Fig. 1B). The rate of consumption of NADPH is directly proportional to the activity of GPX and can be measured by the decrease in fluorescence at 340 nm/450 nm.
First, 3 μL of enzyme in TES assay buffer (50 mM Tris-HCl, 2 mM EDTA (pH 7.5), 150 mM NaCl with enzyme [10 nM GPX1, 200 nM GPX4 ] and BSA [0.01%]) was added to columns 3–48 of 1536-well plates using a BioRAPTR Flying Reagent Dispenser (Let's Go Robotics (LGR), Carlsbad, CA). A no-enzyme control (0.01% BSA in TES assay buffer) was added to columns 1–2. Compounds (25 nL, library and DMSO controls) were added to each well with a pin tool (Kalypsys), and the plates were incubated for 30 min at room temperature before 1 μL of master mix (100 nM GR, 1 mM GSH, 0.5 mM NADPH in TES buffer) was added. 1 μL of cumene hydroperoxide (CHP) ([0.5 mM] in 50% EtOH) was then added within 5 min to initiate the reaction. Fluorescence at 340/450 nm was measured using a ViewLux multimodal detector (PerkinElmer, Waltham, MA) at initial t = 0 and endpoint t = 15 min (GPX1) or t = 20 min (GPX4).
Follow-up confirmation assays were also run in 96-well format using medium binding clear 96-well SpectraPlate microplates (PerkinElmer) and NADPH absorbance at 340 nm was measured every 30 s for 30 min using an Infinite® M Nano (Tecan).
(§3) Percent activity was determined by first calculating delta RFU (decrease in fluorescence between t = 0 and t = 20/30 min in primary GPX, GR counter-screen, and TXNRD1 assays, or increase in fluorescence between t = 0 and t = 20 min in the Monobromobimane GPX endpoint assay), and normalizing enzyme activity using median delta RFU values for DMSO-treated enzyme control, and DMSO-treated no-enzyme controls.
(§4) Compound inhibitory activity in the qHTS assays was determined by plotting dose-response data for each sample and fitting with a four-parameter logistic fit to assess IC50 values, efficacy (maximal response), and AUC (area under the curve), as previously described. Hits were classified by the quality of the concentration-response curves (CRC). Curve classes −1.1 and −1.2 being the highest-confidence actives with complete CRCs and classes −2.1 and −2.2 being lower-confidence actives with incomplete CRCs.

[2] = molecular target: T2, GR (glutathione reductase) (Homo sapiens, UniProt P00390); assay: GR counter-assay; assay type: biochemical; settings: Fig. 9 pan-selenoprotein inhibitors
T2 construct: made in house
T2 sequence (P00390 44-522): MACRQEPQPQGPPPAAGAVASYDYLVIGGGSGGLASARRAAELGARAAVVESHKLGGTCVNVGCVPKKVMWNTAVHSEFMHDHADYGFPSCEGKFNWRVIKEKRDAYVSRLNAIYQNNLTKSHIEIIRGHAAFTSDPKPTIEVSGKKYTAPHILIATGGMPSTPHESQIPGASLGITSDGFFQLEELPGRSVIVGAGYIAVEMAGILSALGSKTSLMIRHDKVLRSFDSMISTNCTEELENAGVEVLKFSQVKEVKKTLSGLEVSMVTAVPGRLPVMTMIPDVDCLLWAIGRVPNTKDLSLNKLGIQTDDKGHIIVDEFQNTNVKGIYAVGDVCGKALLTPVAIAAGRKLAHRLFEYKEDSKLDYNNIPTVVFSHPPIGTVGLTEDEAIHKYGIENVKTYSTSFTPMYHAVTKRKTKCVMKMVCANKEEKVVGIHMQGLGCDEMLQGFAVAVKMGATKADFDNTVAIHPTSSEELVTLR
Description: as §1, §2
To identify false positive compounds that interfere with the primary assay through inhibition of GR, ‘hits’ from the primary screening were run against a GR counter assay to identify this possible off-target inhibition (Fig. 1C). Briefly, 3 μL enzyme mixture (100 nM GR, 0.01% BSA in TES buffer) was dispensed into columns […] of a 1536-well black medium-binding solid-bottom plates. The no-enzyme control (0.01% BSA in TES buffer) was included in column 1 and 2. Compounds and controls (23 nL) were added to each well with a pin tool (Kalypsys), and the plates were incubated for 30 min before 2 μL of substrate mixture (1 mM GSSG 0.4 mM NADPH in TES buffer) was added to each well and absorbance at 340 nm was measured at t = 0 and t = 20 min using a ViewLux Multimodal detector (PerkinElmer).
as §3, §4

[3] = molecular target: T3, GPX1 (Homo sapiens, UniProt P07203); assay: nanoDSF thermal stabilization, GPX1; assay type: binding
T3 construct: made in house; host or cells: E. coli
T3 sequence (P07203 1-203): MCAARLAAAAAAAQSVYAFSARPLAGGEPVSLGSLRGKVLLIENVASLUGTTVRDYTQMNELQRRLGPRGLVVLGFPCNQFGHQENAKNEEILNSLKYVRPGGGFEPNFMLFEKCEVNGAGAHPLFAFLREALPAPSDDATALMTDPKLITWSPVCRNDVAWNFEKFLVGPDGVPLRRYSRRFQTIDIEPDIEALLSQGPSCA
Description: Thermal stabilization of enzyme ± DMSO or ± compound was carried out in a Prometheus NT.48 instrument (NanoTemper Technologies) with an excitation wavelength of 280 nm. Intrinsic fluorescence at 330 nm and 350 nm was monitored while heating. Capillaries were filled with ∼10 μL of a solution of GPX1/4 (1 mg/mL), ± small molecule (100 μM) or DMSO, in TES buffer and placed into the instrument. The capillaries were subjected to a temperature range from 30 to 90 °C at a ramp rate of 2 °C/min. The ratio of the recorded emission intensities (350nm/330 nm) were plotted as a function of temperature. This ratio and first derivatives were calculated using the NanoTemper software and were plotted using GraphPad Prism.

| inhibition of GPX4 [1] | inhibition of GPX4 ([1]; listed as 2,3-dimercaptopropanesulfonic acid) | inhibition of GR [2] | SMILES | GSH Binding (ΔTm) GPx1; shift in nanoDSF melting temperature ([3]; 100 μM small molecule vs DMSO control, first or only inflection point) | thermal stabilization of GPX1 ([3]; nanoDSF) |
| --- | --- | --- | --- | --- | --- |
| inhibited all tested selenoproteins | inhibited all selenoproteins | not GR | O=S(=O)(O)CC(S)CS (centres unmarked) [2,3-dimercaptopropanesulfonate] | – | – |
| – | – | – | CC(=O)OC[C@H]1O[C@@H]([S-])[C@H](OC(C)=O)[C@@H](OC(C)=O)[C@@H]1OC(C)=O.CCP(CC)CC.[Au+] [Auranofin] | +8.3 °C | significant shifts in the melting temperature of GPX1 |
